Measurements published in BindingDB's records for doi:10.1016/S0960-894X(96)00246-6 (1996).

Test: Inhibition of ADP-induced human platelet aggregation

| Compound | IC50 [nM] |
| --- | --- |
| CC(C)(C)[C@H](NC(=O)[C@H](CC(=O)O)NC(=O)CCCOc1ccc(C(=N)N)cc1)C(=O)O | 230 |
| CC(C)[C@H](NC(=O)[C@H](CC(=O)O)NC(=O)CCCOc1ccc(C(=N)N)cc1)C(=O)O [2-{2-[4-(4-Carbamimidoyl-phenoxy)-butyrylamino]-3-carboxy-propionylamino}-3-methyl-butyric acid (FK633)] | 100 |
| CC(C)C[C@H](NC(=O)[C@H](CC(=O)O)NC(=O)CCCOc1ccc(C(=N)N)cc1)C(=O)O [(S)-2-{(S)-2-[4-(4-Carbamimidoyl-phenoxy)-butyrylamino]-3-carboxy-propionylamino}-4-methyl-pentanoic acid] | 130 |
| CN(C(=O)[C@H](CC(=O)O)NC(=O)CCCOc1ccc(C(=N)N)cc1)[C@@H](Cc1ccc(O)cc1)C(=O)O [(S)-3-[4-(4-Carbamimidoyl-phenoxy)-butyrylamino]-N-[(S)-1-carboxy-2-(4-hydroxy-phenyl)-ethyl]-N-methyl-succinamic acid] | 120 |
| COc1ccc(C[C@H](NC(=O)[C@H](CC(=O)O)NC(=O)CCCCOc2ccc(C(=N)N)cc2)C(=O)O)cc1 [(S)-3-[5-(4-Carbamimidoyl-phenoxy)-pentanoylamino]-N-[(S)-1-carboxy-2-(4-methoxy-phenyl)-ethyl]-succinamic acid] | 4500 |
